According to PubChem BioAssay AID1963874 (Molecular Pharmacology Branch, DTP, NCI, 2024):

Tested on: 253994-281-T-J1-PDC KRAS-mutant spheroids with HUVEC/MSC, viability
Assay: Anticancer human tumor 253994-281-T-J1-PDC patient-derived colorectal carcinoma cell line growth inhibition [KRAS2]
Conditions: for viability, T/C: stronger effect = lower value
Procedure, shortened: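 KRAS-mutant tumor cells were grown as spheroids with HUVEC endothelial cells and human MSCs as stroma. Targeted agents were tested alone and with KRAS pathway inhibitors. Doses started at or near clinical Cmax, or 10 microM, descending half-log.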

[1] = curve of first compound, second compound 0.1 µM
[2] = curve of first compound, second compound 0.316 µM
[3] = curve of first compound, second compound 1 µM
[4] = curve of first compound, second compound 3.16 µM
[5] = curve of first compound, second compound 10 µM
[6] = second compound 0.1 µM, first compound 0.0316 µM
[7] = second compound 0.1 µM, first compound 0.1 µM
[8] = second compound 0.1 µM, first compound 0.316 µM
[9] = second compound 0.1 µM, first compound 1 µM
[10] = second compound 0.1 µM, first compound 3.16 µM
[11] = second compound 0.1 µM, first compound 10 µM
[12] = second compound 0.316 µM, first compound 0.0316 µM
[13] = second compound 0.316 µM, first compound 0.1 µM
[14] = second compound 0.316 µM, first compound 0.316 µM
[15] = second compound 0.316 µM, first compound 1 µM
[16] = second compound 0.316 µM, first compound 3.16 µM
[17] = second compound 0.316 µM, first compound 10 µM
[18] = second compound 1 µM, first compound 0.0316 µM
[19] = second compound 1 µM, first compound 0.1 µM
[20] = second compound 1 µM, first compound 0.316 µM
[21] = second compound 1 µM, first compound 1 µM
[22] = second compound 1 µM, first compound 3.16 µM
[23] = second compound 1 µM, first compound 10 µM
[24] = second compound 3.16 µM, first compound 0.0316 µM
[25] = second compound 3.16 µM, first compound 0.1 µM
[26] = second compound 3.16 µM, first compound 0.316 µM
[27] = second compound 3.16 µM, first compound 1 µM
[28] = second compound 3.16 µM, first compound 3.16 µM
[29] = second compound 3.16 µM, first compound 10 µM
[30] = second compound 10 µM, first compound 0.0316 µM
[31] = second compound 10 µM, first compound 0.1 µM
[32] = second compound 10 µM, first compound 0.316 µM
[33] = second compound 10 µM, first compound 1 µM
[34] = second compound 10 µM, first compound 3.16 µM
[35] = second compound 10 µM, first compound 10 µM
[36] = second compound 0.1 µM, first compound 0.01 µM
[37] = second compound 0.316 µM, first compound 0.01 µM
[38] = second compound 1 µM, first compound 0.01 µM
[39] = second compound 3.16 µM, first compound 0.01 µM
[40] = second compound 10 µM, first compound 0.01 µM
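Further: spheroids exposed to agents for seven days before readout.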
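Wherever viability, T/C is given: percent of DMSO vehicle control viability.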

Compound: CCNC(=O)CC1N=C(c2ccc(Cl)cc2)c2cc(OC)ccc2-n2c(C)nnc21 (configuration not stated) + CC1OCC2(CCN(c3cnc(Sc4ccnc(N)c4Cl)c(N)n3)CC2)C1N
- IC50 [1]: > 10000 nM
- IC50 [2]: > 10000 nM
- IC50 [3]: 3860 nM
- IC50 [4]: 648 nM
- IC50 [5]: 63.7 nM
- viability, T/C [6]: 90.4%
- viability, T/C [7]: 100%
- viability, T/C [8]: 86.5%
- viability, T/C [9]: 82%
- viability, T/C [10]: 74.2%
- viability, T/C [11]: 67%
- viability, T/C [12]: 85.2%
- viability, T/C [13]: 81.3%
- viability, T/C [14]: 75.5%
- viability, T/C [15]: 65%
- viability, T/C [16]: 74%
- viability, T/C [17]: 65%
- viability, T/C [18]: 80%
- viability, T/C [19]: 79.9%
- viability, T/C [20]: 79%
- viability, T/C [21]: 64.1%
- viability, T/C [22]: 54.6%
- viability, T/C [23]: 35.1%
- viability, T/C [24]: 61.5%
- viability, T/C [25]: 78%
- viability, T/C [26]: 61.5%
- viability, T/C [27]: 40.9%
- viability, T/C [28]: 34.9%
- viability, T/C [29]: 23.1%
- viability, T/C [30]: 52.8%
- viability, T/C [31]: 47.6%
- viability, T/C [32]: 43.5%
- viability, T/C [33]: 36.4%
- viability, T/C [34]: 26.6%
- viability, T/C [35]: 16.5%

Compound: O=C(c1cc(Cc2n[nH]c(=O)c3ccccc23)ccc1F)N1CCN(C(=O)C2CC2)CC1
- viability, T/C (compound 0.0316 µM): 103% [middle of 5 runs]
- viability, T/C (compound 0.1 µM): 93.8% [middle of 5 runs]
- viability, T/C (compound 0.316 µM): 91.2% [middle of 5 runs]
- viability, T/C (compound 1 µM): 95.1% [middle of 5 runs]
- viability, T/C (compound 3.16 µM): 93.6% [middle of 5 runs]
- viability, T/C (compound 10 µM): 89.7% [middle of 5 runs]
- IC50 (curve of compound): > 10000 nM

Compound: COc1cc2nccc(Oc3ccc(NC(=O)C4(C(=O)Nc5ccc(F)cc5)CC4)cc3)c2cc1OC
- viability, T/C (compound 0.0316 µM): 99.7% [middle of 5 runs]
- viability, T/C (compound 0.1 µM): 108% [middle of 5 runs]
- viability, T/C (compound 0.316 µM): 92.9% [middle of 5 runs]
- viability, T/C (compound 1 µM): 93.9% [middle of 5 runs]
- viability, T/C (compound 3.16 µM): 89.8% [middle of 5 runs]
- viability, T/C (compound 10 µM): 76.9% [middle of 5 runs]
- IC50 (curve of compound): > 10000 nM

Compound: CC1(C)CCC(CN2CCN(c3ccc(C(=O)NS(=O)(=O)c4ccc(NCC5CCOCC5)c([N+](=O)[O-])c4)c(Oc4cnc5[nH]ccc5c4)c3)CC2)=C(c2ccc(Cl)cc2)C1 + C=CC(=O)N1CCN(c2nc(OCC3CCCN3C)nc3c2CCN(c2cccc4cccc(C)c24)C3)CC1CC#N
- IC50 (curve of first compound, second compound 0.0316 µM): > 10000 nM
- IC50 [1]: 6520 nM
- IC50 [2]: 8920 nM
- IC50 [3]: 4900 nM
- IC50 [4]: < 31.6 nM
- viability, T/C (second compound 0.0316 µM, first compound 0.0316 µM): 110%
- viability, T/C (second compound 0.0316 µM, first compound 0.1 µM): 98.6%
- viability, T/C (second compound 0.0316 µM, first compound 0.316 µM): 102%
- viability, T/C (second compound 0.0316 µM, first compound 1 µM): 90.6%
- viability, T/C (second compound 0.0316 µM, first compound 3.16 µM): 84.5%
- viability, T/C (second compound 0.0316 µM, first compound 10 µM): 56.7%
- viability, T/C [6]: 96.9%
- viability, T/C [7]: 89%
- viability, T/C [8]: 87.4%
- viability, T/C [9]: 90.2%
- viability, T/C [10]: 64.8%
- viability, T/C [11]: 41.2%
- viability, T/C [12]: 102%
- viability, T/C [13]: 99.2%
- viability, T/C [14]: 95.6%
- viability, T/C [15]: 92.8%
- viability, T/C [16]: 87.1%
- viability, T/C [17]: 45.7%
- viability, T/C [18]: 83.6%
- viability, T/C [19]: 94.5%
- viability, T/C [20]: 91.7%
- viability, T/C [21]: 79.3%
- viability, T/C [22]: 64.3%
- viability, T/C [23]: 27.8%
- viability, T/C [24]: 18.6%
- viability, T/C [25]: 25.2%
- viability, T/C [26]: 22%
- viability, T/C [27]: 9.94%
- viability, T/C [28]: 0.66%
- viability, T/C [29]: 0.3%

Compound: CC(C)n1nc(-c2ccc3oc(N)nc3c2)c2c(N)ncnc21 + CNCc1ccccc1-c1csc(C(C)Nc2nc(C)nc3cc(OC)c(OC)cc23)c1
- IC50 [1]: > 100 nM
- IC50 [2]: > 100 nM
- IC50 [3]: > 100 nM
- IC50 [4]: 0.316 nM
- IC50 [5]: < 0.316 nM
- viability, T/C (second compound 0.1 µM, first compound 0.000316 µM): 96.7%
- viability, T/C (second compound 0.1 µM, first compound 0.001 µM): 86.8%
- viability, T/C (second compound 0.1 µM, first compound 0.00316 µM): 74.5%
- viability, T/C [36]: 75.8%
- viability, T/C [6]: 79.7%
- viability, T/C [7]: 50.8%
- viability, T/C (second compound 0.316 µM, first compound 0.000316 µM): 91%
- viability, T/C (second compound 0.316 µM, first compound 0.001 µM): 87.5%
- viability, T/C (second compound 0.316 µM, first compound 0.00316 µM): 82.7%
- viability, T/C [37]: 73.2%
- viability, T/C [12]: 78.1%
- viability, T/C [13]: 57%
- viability, T/C (second compound 1 µM, first compound 0.000316 µM): 93.3%
- viability, T/C (second compound 1 µM, first compound 0.001 µM): 78%
- viability, T/C (second compound 1 µM, first compound 0.00316 µM): 79.3%
- viability, T/C [38]: 76.8%
- viability, T/C [18]: 73.3%
- viability, T/C [19]: 51%
- viability, T/C (second compound 3.16 µM, first compound 0.000316 µM): 37.9%
- viability, T/C (second compound 3.16 µM, first compound 0.001 µM): 45.2%
- viability, T/C (second compound 3.16 µM, first compound 0.00316 µM): 56.9%
- viability, T/C [39]: 9.64%
- viability, T/C [24]: 42.3%
- viability, T/C [25]: 28.2%
- viability, T/C (second compound 10 µM, first compound 0.000316 µM): 0.12%
- viability, T/C (second compound 10 µM, first compound 0.001 µM): 0.13%
- viability, T/C (second compound 10 µM, first compound 0.00316 µM): 0.13%
- viability, T/C [40]: 0.11%
- viability, T/C [30]: 0.13%
- viability, T/C [31]: 0.18%

Compound: CC1COCCN1c1cc(-c2ccnn2C)c2ccnc(-c3ccn[nH]3)c2n1 (configuration not stated) + CC1OCC2(CCN(c3cnc(Sc4ccnc(N)c4Cl)c(N)n3)CC2)C1N
- IC50 [1]: 280 nM
- IC50 [2]: 141 nM
- IC50 [3]: 116 nM
- IC50 [4]: 49.7 nM
- IC50 [5]: < 10 nM
- viability, T/C [36]: 87%
- viability, T/C [6]: 81.8%
- viability, T/C [7]: 62.9%
- viability, T/C [8]: 44%
- viability, T/C [9]: 47%
- viability, T/C [10]: 53.1%
- viability, T/C [37]: 87.5%
- viability, T/C [12]: 83%
- viability, T/C [13]: 55.4%
- viability, T/C [14]: 33.3%
- viability, T/C [15]: 36.4%
- viability, T/C [16]: 43.6%
- viability, T/C [38]: 75.2%
- viability, T/C [18]: 70.4%
- viability, T/C [19]: 52.8%
- viability, T/C [20]: 30.9%
- viability, T/C [21]: 27.6%
- viability, T/C [22]: 38%
- viability, T/C [39]: 59.5%
- viability, T/C [24]: 58.9%
- viability, T/C [25]: 35.8%
- viability, T/C [26]: 24.1%
- viability, T/C [27]: 24.3%
- viability, T/C [28]: 28.2%
- viability, T/C [40]: 43%
- viability, T/C [30]: 53.4%
- viability, T/C [31]: 25.1%
- viability, T/C [32]: 16.7%
- viability, T/C [33]: 18.9%
- viability, T/C [34]: 23.6%

Compound: COc1cc(Nc2ncc3c(n2)-c2ccc(Cl)cc2C(c2c(F)cccc2OC)=NC3)ccc1C(=O)O + CC1OCC2(CCN(c3cnc(Sc4ccnc(N)c4Cl)c(N)n3)CC2)C1N
- IC50 [1]: < 31.6 nM
- IC50 [2]: < 31.6 nM
- IC50 [3]: < 31.6 nM
- IC50 [4]: < 31.6 nM
- IC50 [5]: < 31.6 nM
- viability, T/C [6]: 51%
- viability, T/C [7]: 25.3%
- viability, T/C [8]: 24.6%
- viability, T/C [9]: 28.7%
- viability, T/C [10]: 40.4%
- viability, T/C [11]: 42.6%
- viability, T/C [12]: 34.6%
- viability, T/C [13]: 21.5%
- viability, T/C [14]: 22%
- viability, T/C [15]: 26%
- viability, T/C [16]: 25.8%
- viability, T/C [17]: 23.7%
- viability, T/C [18]: 23.4%
- viability, T/C [19]: 16.7%
- viability, T/C [20]: 17.7%
- viability, T/C [21]: 19.6%
- viability, T/C [22]: 18.7%
- viability, T/C [23]: 20.1%
- viability, T/C [24]: 19.5%
- viability, T/C [25]: 14.2%
- viability, T/C [26]: 14.1%
- viability, T/C [27]: 18.5%
- viability, T/C [28]: 14.2%
- viability, T/C [29]: 21%
- viability, T/C [30]: 13.3%
- viability, T/C [31]: 12.5%
- viability, T/C [32]: 10.3%
- viability, T/C [33]: 9.72%
- viability, T/C [34]: 10.8%
- viability, T/C [35]: 9.48%

Compound: CNCc1ccccc1-c1csc(C(C)Nc2nc(C)nc3cc(OC)c(OC)cc23)c1 (configuration not stated)
- viability, T/C (compound 10 µM): 0.18% [middle of 14 runs]
- IC50 (compound alone, run of 08/26/2021): 2.36 µM [middle of 5 runs]
- IC50 (compound alone, run of 09/02/2021): 2.83 µM [middle of 6 runs]
